From patent US20260184712A1, “Heterocyclic Compounds as ENT Inhibitors and Compounds for Use in the Treatment of Cancers” (iTeos Belgium SA, priority 2022, published 2026)

What was measured:
[1] = system: stimulated primary human T cells; assay: T cell proliferation assay, Condition A (X-VIVO15); assay type: cell-based; conditions: Homo sapiens, T-cell, 96 h; Condition A: X-VIVO15 medium; anti-CD3/anti-CD28 beads, ATP, 4 days; CFSE-lo T cells
Method: (§1) The goal of this study was to determine the potency of ENT1 inhibitors by measuring the rescued proliferation of stimulated primary human T cells incubated in the presence of 100 uM Adenosine triphosphate (ATP), in baseline conditions (condition A) or in the presence of various proteins known to bind small molecules (condition B).
(§2) Venous blood from healthy volunteers, all of whom signed an informed consent approved by the Ethics Committee (FOR—UIC—BV-050-01-01 ICF_HBS_HD Version 5.0), was obtained by ImmuneHealth (Centre Hospitalier Universitaire Tivoli, La Louviere, Belgium). Mononuclear cells were collected by density gradient centrifugation, using SepMate-50 tubes (StemCell Technologies, Grenoble, France) and Lymphoprep (Stemcell Technologies) according to the manufacturer's instructions. CD3+ T cells were isolated by immunomagnetic negative selection, using the EasySep Human T Cell Isolation Kit (StemCell Technologies) as per the manufacturer's instructions. CD3+ T cells were stored in heat inactivated FBS (hiFBS; Gibco, ThermoFisher Scientific, Merelbeke, Belgium) and 10% DMSO in liquid nitrogen.
(§3) Purified human CD3+ T cells were thawed and washed once with RPMI1640 medium, UltraGlutamine (Lonza, Verviers, Belgium) containing 10% hiFBS. Cells were resuspended in PBS containing 10% hiFBS at 1×10^7 cells/ml. One volume of cells was combined with a matching volume of 2 μM CFSE solution in PBS, mixed well by pipetting, and incubated at room temperature for 5 minutes under rotation and protected from light. Excess CFSE was quenched by addition of PBS containing 10% hiFBS, and the cells were centrifuged (300×rcf, 7 minutes) and resuspended in X-VIVO15. Cells were again centrifuged and resuspended in X-VIVO15 for counting.
(§4) Cells were resuspended at 1.6×10^6 cells/mL in X-VIVO15 medium (Condition A) or X-VIVO15 medium containing 4% (v/v) HSA (Sigma-Aldrich, Diegem, Belgium) and 0.2% (v/v) ai-Acid Glycoprotein (Sigma-Aldrich, Diegem, Belgium) (Condition B).
(§5) […] of cell suspension (2×10^4 cells) was added to wells of sterile flat-bottom 384-well plates. Cells were activated by adding […] of anti-CD3 anti-CD28 coated microbeads (Dynabeads human T-activator CD3/CD28; Life Technologies, Paisley, UK) suspended in X-VIVO15 medium or X-VIVO15 medium containing 4% (v/v) HSA and 0.2% (v/v) ai-Acid Glycoprotein at a ratio of one microbead per two cells. Serial dilutions of the ENT1 inhibitors were conducted in X-VIVO15 medium and […] of the diluent was added to the wells. Cells were mixed by pipetting up and down and pre-incubated for 30 minutes in a 37° C. humidified tissue culture incubator with 5% CO2. After pre-incubation, cells were cultured in the presence or absence of ATP (Sigma-Aldrich) at a final concentration of […]. The final well volume was 50 μl in all cases. Experiments were performed in biological duplicates. Cells were mixed by pipetting up and down and incubated for 4 days in a 37° C. humidified tissue culture incubator with 5% CO2.
(§6) Samples were run on a BD LSR Fortessa FACS machine (BD FACSDiva Software v9.0.1). Data were analyzed using FlowJo (BD, v10.7.1). T cell proliferation was determined by measuring the frequency of ‘CFSE^lo’ (i.e. CFSE-diluted).
(§7) T cell proliferation data were analyzed using FlowJo software (Version 10.6.2). Dead cells and cellular debris were excluded on the basis of forward and side scatter profile and singlet cells were selected for further analysis.
(§8) T cell proliferation was determined based on the percent CFSE^lo total T cells for each condition. The data were plotted on the y-axis against log molar (M) concentration of ENT1 inhibitors on the x-axis in GraphPad Prism (version 9.0.0). IC50 and IC90 values were generated with the ‘log(agonist) vs. response—Find ECanything(F))’ function with F constrained to 50 or 90, respectively. pICF values were generated by taking the −logECF values.

human ENT1 = target: T1, human ENT1 (Homo sapiens, UniProt Q99808); assay: ENT1 binding assay (competition with Sahenta-DY647 on JAR cells); conditions: competition with SAHENTA-DY647 binding; IC50 categorized; read-out: Binding Assay IC50
T1 construct: JAR cells expressing ENT1 were purchased from ATCC; host or cells: JAR cells
T1 sequence (Q99808 1-456): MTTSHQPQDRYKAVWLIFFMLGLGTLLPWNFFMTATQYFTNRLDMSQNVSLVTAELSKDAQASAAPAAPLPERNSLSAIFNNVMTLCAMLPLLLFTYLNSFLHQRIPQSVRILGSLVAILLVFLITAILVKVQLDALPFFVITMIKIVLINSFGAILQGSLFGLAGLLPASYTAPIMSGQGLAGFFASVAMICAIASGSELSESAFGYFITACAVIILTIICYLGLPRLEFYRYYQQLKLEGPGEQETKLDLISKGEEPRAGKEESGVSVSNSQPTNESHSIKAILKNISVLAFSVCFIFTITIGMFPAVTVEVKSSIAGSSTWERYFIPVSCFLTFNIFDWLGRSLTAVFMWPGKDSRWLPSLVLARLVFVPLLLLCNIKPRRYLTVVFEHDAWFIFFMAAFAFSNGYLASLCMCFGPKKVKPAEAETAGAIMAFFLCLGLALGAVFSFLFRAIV
Summary of the method: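 Whole-cell competition on JAR cells (native ENT1): 50,000 cells pre-incubated 30 min at 4 °C with compound in HBSS/10 mM Hepes/0.1% BSA, then 100 nM Sahenta-DY647 added for 30 min at 4 °C. After washing, fluorescence (Ex 630/Em 670 nm) read; IC50 from sigmoidal fit, averaged as pIC50.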

[2] = system: stimulated primary human T cells; assay: T cell proliferation assay, Condition B (X-VIVO15, 2% HSA and 0.1% AAG); assay type: cell-based; conditions: Homo sapiens, T-cell, 96 h; Condition B: X-VIVO15 medium containing HSA and α1-Acid Glycoprotein; anti-CD3/anti-CD28 beads, ATP, 4 days; CFSE-lo T cells
Method: as §1
Condition B: X-VIVO15, 2% Human Serum Albumin (HSA) and 0.1% α-1-Acid Glycoprotein (AAG)
as §2, §3, §4, §5, §6, §7, §8

IC50 (human ENT1)	Compound	IC50 [1]	IC50 [2]
1 to 20 nM	C[C@H]1O[C@@H](n2c(NC3CCOC3)nc3c(OCc4ccc([N+](=O)[O-])cc4)ncnc32)[C@H](O)[C@@H]1O (stereo partly drawn) [Compound 18]	< 1 nM	1 to 20 nM
1 to 20 nM	CCNc1nc2c(OCc3ccc([N+](=O)[O-])cc3)ncnc2n1[C@@H]1O[C@H](C)[C@@H](O)[C@H]1O [Compound 20]	< 1 nM	20 to 500 nM
1 to 20 nM	C[C@H]1O[C@@H](n2c(NCCO)nc3c(OCc4ccc([N+](=O)[O-])cc4)ncnc32)[C@H](O)[C@@H]1O [Compound 21]	1 to 20 nM	20 to 500 nM
1 to 20 nM	C[C@H]1O[C@@H](n2c(NCCCO)nc3c(OCc4ccc([N+](=O)[O-])cc4)ncnc32)[C@H](O)[C@@H]1O [Compound 22]	1 to 20 nM	20 to 500 nM
1 to 20 nM	COCCNc1nc2c(OCc3ccc([N+](=O)[O-])cc3)ncnc2n1[C@@H]1O[C@H](C)[C@@H](O)[C@H]1O [Compound 23]	< 1 nM	20 to 500 nM
1 to 20 nM	C[C@H]1O[C@@H](n2c(NCC(F)(F)F)nc3c(OCc4ccc([N+](=O)[O-])cc4)ncnc32)[C@H](O)[C@@H]1O [Compound 24]	1 to 20 nM	20 to 500 nM
< 1 nM	CC(C)Nc1nc2c(OCc3ccc([N+](=O)[O-])cc3)ncnc2n1[C@@H]1O[C@H](C)[C@@H](O)[C@H]1O [Compound 25]	< 1 nM	1 to 20 nM
1 to 20 nM	C[C@H]1O[C@@H](n2c(NC3CC3)nc3c(OCc4ccc([N+](=O)[O-])cc4)ncnc32)[C@H](O)[C@@H]1O [Compound 26]	1 to 20 nM	20 to 500 nM
< 1 nM	C[C@H]1O[C@@H](n2c(NC3CCC(O)C3)nc3c(OCc4ccc([N+](=O)[O-])cc4)ncnc32)[C@H](O)[C@@H]1O (stereo partly drawn) [Compound 29]	< 1 nM	1 to 20 nM
< 1 nM	C[C@H]1O[C@@H](n2c(NC3CCOCC3)nc3c(OCc4ccc([N+](=O)[O-])cc4)ncnc32)[C@H](O)[C@@H]1O [Compound 30]	< 1 nM	1 to 20 nM
< 1 nM	C[C@H]1O[C@@H](n2c(NC3CCS(=O)(=O)CC3)nc3c(OCc4ccc([N+](=O)[O-])cc4)ncnc32)[C@H](O)[C@@H]1O [Compound 31]	< 1 nM	1 to 20 nM
20 to 500 nM	C[C@H]1O[C@@H](n2c(NCCC3CCN(C)CC3)nc3c(OCc4ccc([N+](=O)[O-])cc4)ncnc32)[C@H](O)[C@@H]1O [Compound 34]	1 to 20 nM	20 to 500 nM
1 to 20 nM	CC(C)Nc1nc2c(OCc3ccc(C#N)cc3)ncnc2n1[C@@H]1O[C@H](C)[C@@H](O)[C@H]1O [Compound 40]	< 1 nM	20 to 500 nM
1 to 20 nM	C[C@H]1O[C@@H](n2c(NCCCO)nc3c(OCc4ccc(OC(F)F)cc4)ncnc32)[C@H](O)[C@@H]1O [Compound 44]	1 to 20 nM	20 to 500 nM
1 to 20 nM	C[C@H]1O[C@@H](n2c(NC3CC(F)(F)C3)nc3c(OCc4ccc([N+](=O)[O-])cc4)ncnc32)[C@H](O)[C@@H]1O [Compound 47]	< 1 nM	20 to 500 nM
1 to 20 nM	C[C@H]1O[C@@H](n2c(NC3CC(F)(F)C3)nc3c(OCc4ccc(C#N)cc4)ncnc32)[C@H](O)[C@@H]1O [Compound 49]	> 500 nM	20 to 500 nM
< 1 nM	C[C@H]1O[C@@H](n2c(NC3CCC(O)CC3)nc3c(OCc4ccc(OC(F)F)cc4)ncnc32)[C@H](O)[C@@H]1O (stereo partly drawn) [Compound 53]	< 1 nM	1 to 20 nM
< 1 nM	C[C@H]1O[C@@H](n2c(NC3CCS(=O)(=O)CC3)nc3c(OCc4ccc(C#N)cc4)ncnc32)[C@H](O)[C@@H]1O [Compound 54]	< 1 nM	20 to 500 nM
< 1 nM	C[C@H]1O[C@@H](n2c(NC3CCS(=O)(=O)CC3)nc3c(OCc4ccc(OC(F)F)cc4)ncnc32)[C@H](O)[C@@H]1O [Compound 55]	< 1 nM	1 to 20 nM
1 to 20 nM	C[C@H]1O[C@@H](n2c(NCc3cnn(C)c3)nc3c(OCc4ccc(C#N)cc4)ncnc32)[C@H](O)[C@@H]1O [Compound 65]	1 to 20 nM	20 to 500 nM
1 to 20 nM	C[C@H]1O[C@@H](n2c(N[C@@H]3CCOC3)nc3c(OCc4ccc(C#N)cc4)ncnc32)[C@H](O)[C@@H]1O [Compound 77]	< 1 nM	20 to 500 nM
< 1 nM	CC(=O)N1CCC(Nc2nc3c(OCc4ccc(OC(F)F)cc4)ncnc3n2[C@@H]2O[C@H](C)[C@@H](O)[C@H]2O)CC1 [Compound 79]	< 1 nM	1 to 20 nM
< 1 nM	C[C@H]1O[C@@H](n2c(N[C@@H]3CCC(F)(F)C3)nc3c(OCc4ccc(C#N)cc4)ncnc32)[C@H](O)[C@@H]1O [Compound 81]	< 1 nM	20 to 500 nM
< 1 nM	C[C@H]1O[C@@H](n2c(NC3CCCC3)nc3c(OCc4ccc(C#N)c(F)c4)ncnc32)[C@H](O)[C@@H]1O [Compound 89]	< 1 nM	20 to 500 nM
1 to 20 nM	C[C@H]1O[C@@H](n2c(NCC3CCOC3)nc3c(OCc4ccc(C#N)cc4)ncnc32)[C@H](O)[C@@H]1O (stereo partly drawn) [Compound 108]	1 to 20 nM	20 to 500 nM
1 to 20 nM	C[C@H]1O[C@@H](n2c(NCC3CCOC3)nc3c(OCc4ccc(OC(F)F)cc4)ncnc32)[C@H](O)[C@@H]1O (stereo partly drawn) [Compound 112]	< 1 nM	20 to 500 nM
1 to 20 nM	C[C@H]1O[C@@H](n2c(NCC3CCOCC3)nc3c(OCc4ccc(OC(F)F)cc4)ncnc32)[C@H](O)[C@@H]1O [Compound 113]	< 1 nM	20 to 500 nM
1 to 20 nM	C[C@H]1O[C@@H](n2c(NCC3CC(F)(F)C3)nc3c(OCc4ccc(OC(F)F)nc4)ncnc32)[C@H](O)[C@@H]1O [Compound 114]	< 1 nM	20 to 500 nM
